The test system of data set [1] is Rattus norvegicus. As to the kind of experiment: Antiinflammatory activity in allergen challenged Brown-Norway rat assessed as inhibition of total BAL cell administered via nose as dry powder. Type of data set: functional.
In data set [2] the test system is Rattus norvegicus. In words: Toxicity in ip dosed Brown-Norway rat assessed as decrease in thymus weight administered for 3 days. The note with it: in vivo, 72 h. In kind it is organism-based.
For data set [3], the system named is Rattus norvegicus. In words: Toxicity in ip dosed Brown-Norway rat assessed as decrease in adrenal weight administered for 3 days. In kind it is organism-based. The note with it: in vivo, 72 h.
Data set [4] concerns Rattus norvegicus. As to the kind of experiment: Toxicity in ip dosed Brown-Norway rat assessed as decrease in body weight administered for 3 days. In kind it is organism-based. As to conditions: in vivo, 72 h.
In data set [5] the test system is Rattus norvegicus. As to the kind of experiment: Antiinflammatory activity in intratracheal insufflated allergen challenged Brown-Norway rat assessed as inhibition of inflammatory cell influx administered as single dose. As to conditions: inhaled or nasal. Type of data set: functional.
Data set [6] addresses T1, Glucocorticoid receptor (Homo sapiens) (UniProt P04150).
T1 sequence (whole entry): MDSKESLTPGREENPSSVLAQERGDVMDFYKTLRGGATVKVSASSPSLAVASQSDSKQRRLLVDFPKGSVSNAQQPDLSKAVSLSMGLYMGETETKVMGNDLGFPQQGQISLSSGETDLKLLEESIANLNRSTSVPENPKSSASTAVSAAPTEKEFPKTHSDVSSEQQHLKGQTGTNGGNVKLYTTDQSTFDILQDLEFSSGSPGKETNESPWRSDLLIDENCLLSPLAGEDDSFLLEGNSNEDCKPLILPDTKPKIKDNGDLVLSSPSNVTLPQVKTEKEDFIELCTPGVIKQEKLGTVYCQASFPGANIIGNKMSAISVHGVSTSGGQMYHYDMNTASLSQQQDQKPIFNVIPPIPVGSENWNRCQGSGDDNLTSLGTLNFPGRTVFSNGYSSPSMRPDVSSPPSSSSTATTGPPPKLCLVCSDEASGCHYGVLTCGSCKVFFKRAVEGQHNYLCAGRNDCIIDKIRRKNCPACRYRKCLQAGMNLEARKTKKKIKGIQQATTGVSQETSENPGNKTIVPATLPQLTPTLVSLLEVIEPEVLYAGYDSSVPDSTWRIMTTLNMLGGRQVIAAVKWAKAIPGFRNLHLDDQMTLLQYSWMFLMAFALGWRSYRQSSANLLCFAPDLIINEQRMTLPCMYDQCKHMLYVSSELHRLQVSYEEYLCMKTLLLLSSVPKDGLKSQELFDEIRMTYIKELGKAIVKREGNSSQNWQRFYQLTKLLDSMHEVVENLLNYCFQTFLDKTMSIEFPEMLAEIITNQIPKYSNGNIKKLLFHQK
In words: Transactivation activity at glucocorticoid receptor in human HepG2 cells assessed as induction of tyrosine amino transferase at 1 uM relative to control. Type of data set: cell-based.

Data set [7] has as its target T2, Glucocorticoid receptor (Rattus norvegicus) (UniProt P06536).
T2 sequence (whole entry): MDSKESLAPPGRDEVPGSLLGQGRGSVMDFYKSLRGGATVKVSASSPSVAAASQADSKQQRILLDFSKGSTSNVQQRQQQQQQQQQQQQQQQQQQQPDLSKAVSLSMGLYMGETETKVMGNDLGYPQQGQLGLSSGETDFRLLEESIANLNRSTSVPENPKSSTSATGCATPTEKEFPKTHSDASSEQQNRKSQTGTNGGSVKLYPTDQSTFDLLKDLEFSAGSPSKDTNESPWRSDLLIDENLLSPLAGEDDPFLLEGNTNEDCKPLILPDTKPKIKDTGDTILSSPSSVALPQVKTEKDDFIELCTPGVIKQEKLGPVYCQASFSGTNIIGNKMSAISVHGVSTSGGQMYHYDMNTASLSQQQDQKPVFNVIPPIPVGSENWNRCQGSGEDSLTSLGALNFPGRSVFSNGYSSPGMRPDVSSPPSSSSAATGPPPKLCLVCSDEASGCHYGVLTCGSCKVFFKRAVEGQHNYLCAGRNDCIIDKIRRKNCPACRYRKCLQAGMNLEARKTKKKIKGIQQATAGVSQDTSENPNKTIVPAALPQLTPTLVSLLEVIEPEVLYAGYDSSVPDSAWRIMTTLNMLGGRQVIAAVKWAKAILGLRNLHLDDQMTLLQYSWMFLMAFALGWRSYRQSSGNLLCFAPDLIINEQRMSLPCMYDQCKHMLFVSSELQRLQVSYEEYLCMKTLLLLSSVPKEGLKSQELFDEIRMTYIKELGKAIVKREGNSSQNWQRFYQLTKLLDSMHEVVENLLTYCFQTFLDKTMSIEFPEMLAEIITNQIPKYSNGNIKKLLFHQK
As to the kind of experiment: Transactivation activity at glucocorticoid receptor in rat H4II-E cells assessed as induction of tyrosine amino transferase at 1 uM relative to control. In kind it is cell-based.

Data set [8] addresses T3, Glucocorticoid receptor (Homo sapiens, UniProt P04150).
T3 sequence (P04150 whole entry): T1 sequence (whole entry)
In words: Inhibition of human glucocorticoid receptor.

The target of data set [9] is T1, Glucocorticoid receptor (Homo sapiens). As to the kind of experiment: Transrepression activity at glucocorticoid receptor in human H292 cells assessed as inhibition of TNF-stimulated IL-6 cytokine synthesis at 1 uM relative to control. In kind it is cell-based.
The target of data set [10] is T3, Glucocorticoid receptor. In words: Transrepression activity at glucocorticoid receptor in human H292 cells assessed as inhibition of TNF-stimulated IL-6 cytokine synthesis. In kind it is cell-based.
For data set [11], the target named is T1, Glucocorticoid receptor (Homo sapiens). In words: Transactivation activity at glucocorticoid receptor in human HepG2 cells expressing luciferase-taggged GRE gene at 1 uM by luciferase reporter gene assay relative to control. In kind it is cell-based.
Another data set has as its system Lung. As to the kind of experiment: Drug uptake in lung of Brown-Norway rat. In kind it is ADME, tissue-based. As to conditions: in vivo.
The test system of data set [12] is Rattus norvegicus. In words: Antiinflammatory activity in ovalbumin-challenged Brown-Norway rat assessed as improvement in lung function administered via nose as dry powder inhalation once a day for 3 days. The note with it: inhaled or nasal, 72 h. In kind it is functional.
Data set [13] deals with Rattus norvegicus. In words: Induction of thymolysis in ovalbumin-challenged Brown-Norway rat administered via nose inhalation. As to conditions: in vivo, inhaled_or_intranasal. In kind it is organism-based.
Data set [14] concerns Rattus norvegicus. In words: Induction of thymolysis in ovalbumin-challenged Brown-Norway rat at upto 730 ug/kg administered via nose inhalation. In kind it is organism-based. The note with it: in vivo, 0.73 mg/kg.
Data set [15] in a line: Therapeutic index, ratio of ED20 for thymolysis to ED70 for forced vital capacity in ovalbumin-challenged Brown-Norway rat. In kind it is organism-based. The note with it: in vivo, read-out: TI.
For data set [16], the species on record is Rattus norvegicus. As to the kind of experiment: Ratio of fluticasone propionate TI to compound TI in ovalbumin-challenged Brown-Norway rat.
The nature of data set [17]: AUC in rat at 10 mg/kg, po. Set-up: dose 10 mg/kg, route oral. The note with it: plasma. In kind it is ADME, organism-based.

Here are results for three compounds from ChEMBL document CHEMBL1914389, “Steroidal C-21 mercapto derivatives as dissociated steroids: discovery of an inhaled dissociated steroid” (Bioorg Med Chem Lett, 2011).

`C[C@]12CCC(=O)C=C1CC[C@@H]1[C@@H]2[C@@H](O)C[C@@]2(C)[C@H]1CC[C@]2(O)C(=O)CSc1nc2ccccc2s1`: the “inhibition (INH)” value in the data set on Rattus norvegicus [1] was 27%. The ED50 (in general, the dose that gives a 50% effect, or the effect in half of the subjects) was > 100 mg/kg with Rattus norvegicus [2], > 100 mg/kg with Rattus norvegicus [3], > 100 mg/kg in the data set with Rattus norvegicus [4] and 0.42 mg/kg in the data set on Rattus norvegicus [5]. Further, the Emax (in general, the maximal effect, on the per cent scale that the assay sets) in data set [6] was 5%; in data set [7], 0%; in data set [9], 97%; in [11] it was 30%. In addition, the figures for the IC50 against Glucocorticoid receptor [8] and on Glucocorticoid receptor [10] were 4.8 nM and 36 nM, respectively. Moreover, in the data set with Lung, the Drug uptake was found to be 85 µg/kg.

As for `CCC(=O)O[C@]1(C(=O)SCF)[C@H](C)C[C@H]2[C@@H]3C[C@H](F)C4=CC(=O)C=C[C@]4(C)[C@@]3(F)[C@@H](O)C[C@@]21C` [FLUTICASONE PROPIONATE], the median effective dose (ED50) with Rattus norvegicus [2] is 0.14 mg/kg; with Rattus norvegicus [3], 0.52 mg/kg; with Rattus norvegicus [4] it was 0.34 mg/kg; in the data set on Rattus norvegicus [5] it was 0.14 mg/kg. Besides, the values for the Emax in data set [6], in [7] and in [9] were 113%, 110% and 99%, respectively. Further, the ED70 in the data set on Rattus norvegicus [12] was 0.021 mg/kg. The compound further yielded an ED20 in the data set with Rattus norvegicus [13] of 0.023 mg/kg.

Take `C[C@]12CCC(=O)C=C1CC[C@@H]1[C@@H]2[C@@H](O)C[C@@]2(C)[C@H]1CC[C@]2(OC(=O)c1ccco1)C(=O)CSc1nc2ccccc2s1`: the results for the maximal response (Emax) in data set [6], in data set [7] and in data set [9] were 5%, 2% and 100%, respectively. Also, at Glucocorticoid receptor [10], the concentration for half-maximal inhibition (IC50) (usually the concentration at which inhibition is half-maximal) amounted to 2 nM. Further, in the data set on Rattus norvegicus [14], the Activity entry is recorded as “>= 20%”. Further, the selectivity ratio in data set [15] was > 15. Further, in the data set filed under Rattus norvegicus [16], the Ratio is given as 10. In data set [17], the AUC (as a rule, the area under the concentration-time curve, a measure of exposure) came out at 7 ng·h/mL.
